Where two headings read alike, the source gives them in different places.

The target of assay [1] is T1, protein kinases (human kinome) (Homo sapiens, UniProt Q9NYY8).
T1 sequence (Q9NYY8 1-710): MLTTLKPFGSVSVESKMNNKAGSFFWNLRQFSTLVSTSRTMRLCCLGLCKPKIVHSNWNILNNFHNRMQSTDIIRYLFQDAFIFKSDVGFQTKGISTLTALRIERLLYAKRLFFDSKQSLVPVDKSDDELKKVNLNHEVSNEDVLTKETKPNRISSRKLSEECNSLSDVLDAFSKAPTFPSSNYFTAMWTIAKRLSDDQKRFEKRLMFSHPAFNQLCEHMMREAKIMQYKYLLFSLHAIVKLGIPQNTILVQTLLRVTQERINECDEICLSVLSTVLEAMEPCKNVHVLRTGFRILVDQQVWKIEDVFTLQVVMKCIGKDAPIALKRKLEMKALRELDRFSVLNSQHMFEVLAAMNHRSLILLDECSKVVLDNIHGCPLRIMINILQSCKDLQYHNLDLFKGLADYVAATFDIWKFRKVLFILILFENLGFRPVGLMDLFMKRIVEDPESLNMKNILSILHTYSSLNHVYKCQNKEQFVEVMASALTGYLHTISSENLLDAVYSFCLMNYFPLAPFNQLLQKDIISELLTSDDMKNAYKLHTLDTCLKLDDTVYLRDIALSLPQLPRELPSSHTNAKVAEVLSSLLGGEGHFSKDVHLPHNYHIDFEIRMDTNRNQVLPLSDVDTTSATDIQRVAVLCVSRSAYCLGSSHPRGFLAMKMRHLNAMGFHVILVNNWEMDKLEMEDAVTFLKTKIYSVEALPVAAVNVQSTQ
Type of assay: cell-based. The note with it: direction down.

Assay [2] deals with T2, extended human kinome (kinase-like proteins) (Homo sapiens, UniProt P54886).
T2 sequence (P54886 1-795): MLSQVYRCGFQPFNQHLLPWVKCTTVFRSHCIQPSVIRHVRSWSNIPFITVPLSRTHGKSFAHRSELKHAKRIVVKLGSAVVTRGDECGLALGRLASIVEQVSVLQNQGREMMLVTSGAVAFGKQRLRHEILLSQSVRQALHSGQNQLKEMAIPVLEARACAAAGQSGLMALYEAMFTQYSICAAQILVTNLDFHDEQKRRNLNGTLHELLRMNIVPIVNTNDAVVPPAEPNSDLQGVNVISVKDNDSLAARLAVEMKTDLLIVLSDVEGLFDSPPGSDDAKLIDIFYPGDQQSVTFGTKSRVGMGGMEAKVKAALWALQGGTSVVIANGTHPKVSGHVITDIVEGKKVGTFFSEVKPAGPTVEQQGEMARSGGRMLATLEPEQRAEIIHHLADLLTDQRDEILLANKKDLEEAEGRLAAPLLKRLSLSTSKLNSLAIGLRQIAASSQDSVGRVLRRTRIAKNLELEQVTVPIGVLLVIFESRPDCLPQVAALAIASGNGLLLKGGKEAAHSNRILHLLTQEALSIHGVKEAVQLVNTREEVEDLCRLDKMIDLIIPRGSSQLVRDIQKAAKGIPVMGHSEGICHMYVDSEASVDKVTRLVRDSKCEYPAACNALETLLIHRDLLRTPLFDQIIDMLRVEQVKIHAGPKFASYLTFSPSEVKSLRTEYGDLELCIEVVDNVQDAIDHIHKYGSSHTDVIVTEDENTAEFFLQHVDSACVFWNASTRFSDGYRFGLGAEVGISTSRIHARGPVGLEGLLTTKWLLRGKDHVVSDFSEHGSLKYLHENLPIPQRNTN
The experiment in a line: Whole cell quantitative proteomics: extended kinome hits. The note with it: Accession P54886.
Procedure: Whole cell multiplexed quantitative proteomics was employed to measure changes in abundance of the proteome in response to treatment with each of the kinase degrader molecules relative to DMSO (Table 1, Appendix I).
Cells were treated with DMSO (biological triplicate) or degrader at indicated dose and time and cells were harvested by centrifugation. […] Precipitated protein was resuspended in 4 M Urea, 50 mM HEPES pH 7.4, followed by dilution to 1 M urea with the addition of 200 mM EPPS, pH 8. Proteins were first digested with LysC (1:50: enzyme:protein) for 12 hours at room temperature. The LysC digestion was diluted to 0.5 M Urea with 200 mM EPPS pH 8 followed by digestion with trypsin (1:50; enzyme:protein) for 6 hours at 37° C. Tandem mass tag (TMT) reagents (Thermo Fisher Scientific) were dissolved in anhydrous acetonitrile (ACN) according to manufacturer's instructions. […] The 10, 11, or 16-plex labeling reactions were performed for 1.5 hours at room temperature and the reaction quenched by the addition of hydroxylamine to a final concentration of 0.3% for 15 minutes at room temperature. The sample channels were combined at a 1:1 ratio, desalted using C18 solid phase extraction cartridges (Waters®) and analyzed by LC-MS for channel ratio comparison. Samples were then combined using the adjusted volumes determined in the channel ratio analysis and dried down in a speed vacuum. The combined sample was then resuspended in 1% formic acid, and acidified (pH 2-3) before being subjected to desalting with C18 SPE (Sep-Pak®, Waters®). Samples were then offline fractionated into 96 fractions by high pH reverse-phase HPLC (Agilent® LC1260) through an aeris peptide xb-c18 column (Phenomenex®) with mobile phase A containing 5% acetonitrile and 10 mM NH4HCO3 in LC-MS grade H2O, and mobile phase B containing 90% acetonitrile and 10 mM NH4HCO3 in LC-MS grade H2O (both pH 8.0). The 96 resulting fractions were then pooled in a non-continuous manner into 24 fractions and desalted using C18 solid phase extraction plates (SOLA®, Thermo Fisher Scientific) followed by subsequent mass spectrometry analysis.
Data were collected using an Orbitrap Fusion™ Lumos™ mass spectrometer (Thermo Fisher Scientific, San Jose, CA, USA) coupled with a Proxeon EASY-nLC™ 1200 LC pump (Thermo Fisher Scientific) or an Orbitrap Eclipse™ Tribrid™ mass spectrometer (Thermo Fisher Scientific, San Jose, CA, USA) coupled with an UltiMate™ 3000 RSLCnano System. Peptides were separated on an EasySpray™ ES803a/ES803a.rev2 75 μm inner diameter microcapillary column (ThermoFisher Scientific).
Data dependent MS2 spectra were acquired in the ion trap with a normalized collision energy (NCE) set at 35%, AGC target set to 1.8×10^4 and a maximum injection time of 120 ms. MS3 scans were acquired in the Orbitrap with HCD collision energy set to 55%. AGC target set to 2×10^5, maximum injection time of 150 ms, resolution at 50,000 and with a maximum synchronous precursor selection (SPS) precursors set to 10.
Proteome Discoverer™ 2.1, 2.2 or 2.4 (Thermo Fisher Scientific) was used for .RAW file processing and controlling peptide and protein level false discovery rates, assembling proteins from peptides, and protein quantification from peptides.

The target in assay [3] is protein kinases (human kinome) (Homo sapiens, UniProt Q9NYV4). It counts as cell-based.
For assay [4], the target named is protein kinases (human kinome) (Homo sapiens, UniProt P53671). Type of assay: cell-based. To be noted: for logFC LIMK2: LIMK2 (P53671), down; for logFC of LIMK2: LIMK2 P53671.
Assay [5] concerns the target protein kinases (human kinome) (Homo sapiens, UniProt Q07912). It counts as cell-based. The note with it: for logFC TNK2 (Q07912-1): direction down; for logFC TNK2: TNK2 (Q07912-1).

Chain of protein kinases (human kinome) (Homo sapiens, UniProt Q9NYV4) (Q9NYV4 whole entry): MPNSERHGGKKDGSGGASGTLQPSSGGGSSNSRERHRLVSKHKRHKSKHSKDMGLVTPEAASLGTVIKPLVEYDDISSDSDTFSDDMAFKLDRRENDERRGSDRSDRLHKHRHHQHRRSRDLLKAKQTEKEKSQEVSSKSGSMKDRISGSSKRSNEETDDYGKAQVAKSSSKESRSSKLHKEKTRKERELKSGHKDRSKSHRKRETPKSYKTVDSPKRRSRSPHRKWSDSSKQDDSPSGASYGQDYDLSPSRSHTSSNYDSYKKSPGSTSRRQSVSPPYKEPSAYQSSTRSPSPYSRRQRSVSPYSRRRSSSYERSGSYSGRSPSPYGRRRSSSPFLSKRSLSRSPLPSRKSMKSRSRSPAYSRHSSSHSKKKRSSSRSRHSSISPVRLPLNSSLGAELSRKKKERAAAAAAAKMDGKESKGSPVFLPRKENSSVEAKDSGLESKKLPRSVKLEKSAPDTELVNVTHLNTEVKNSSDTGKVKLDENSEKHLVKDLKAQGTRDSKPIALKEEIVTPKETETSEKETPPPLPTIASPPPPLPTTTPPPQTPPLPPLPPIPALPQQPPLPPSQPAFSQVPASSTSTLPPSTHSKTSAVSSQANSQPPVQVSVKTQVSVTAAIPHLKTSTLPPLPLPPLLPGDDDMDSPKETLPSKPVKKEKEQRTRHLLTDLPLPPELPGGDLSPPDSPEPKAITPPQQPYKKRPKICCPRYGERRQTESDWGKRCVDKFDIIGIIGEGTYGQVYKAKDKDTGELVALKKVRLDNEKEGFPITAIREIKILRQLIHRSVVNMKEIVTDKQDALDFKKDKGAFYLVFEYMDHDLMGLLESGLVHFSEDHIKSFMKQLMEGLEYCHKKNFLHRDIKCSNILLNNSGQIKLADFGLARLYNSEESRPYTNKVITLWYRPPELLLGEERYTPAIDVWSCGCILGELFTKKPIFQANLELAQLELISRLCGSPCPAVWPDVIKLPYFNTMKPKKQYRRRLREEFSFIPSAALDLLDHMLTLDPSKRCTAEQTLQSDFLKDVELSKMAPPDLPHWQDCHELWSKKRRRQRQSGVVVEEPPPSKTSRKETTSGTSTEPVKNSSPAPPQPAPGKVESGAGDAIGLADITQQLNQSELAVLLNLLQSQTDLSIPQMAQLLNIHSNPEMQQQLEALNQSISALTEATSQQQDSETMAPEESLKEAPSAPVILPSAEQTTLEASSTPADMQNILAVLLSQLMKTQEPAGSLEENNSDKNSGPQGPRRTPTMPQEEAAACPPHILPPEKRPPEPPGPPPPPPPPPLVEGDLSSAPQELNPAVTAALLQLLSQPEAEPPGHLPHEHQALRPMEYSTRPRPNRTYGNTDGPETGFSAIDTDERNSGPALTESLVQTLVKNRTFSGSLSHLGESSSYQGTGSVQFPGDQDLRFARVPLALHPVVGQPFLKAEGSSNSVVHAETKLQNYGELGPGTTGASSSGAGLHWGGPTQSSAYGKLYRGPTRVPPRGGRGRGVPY
Chain of protein kinases (human kinome) (Homo sapiens, UniProt Q07912) (Q07912 whole entry): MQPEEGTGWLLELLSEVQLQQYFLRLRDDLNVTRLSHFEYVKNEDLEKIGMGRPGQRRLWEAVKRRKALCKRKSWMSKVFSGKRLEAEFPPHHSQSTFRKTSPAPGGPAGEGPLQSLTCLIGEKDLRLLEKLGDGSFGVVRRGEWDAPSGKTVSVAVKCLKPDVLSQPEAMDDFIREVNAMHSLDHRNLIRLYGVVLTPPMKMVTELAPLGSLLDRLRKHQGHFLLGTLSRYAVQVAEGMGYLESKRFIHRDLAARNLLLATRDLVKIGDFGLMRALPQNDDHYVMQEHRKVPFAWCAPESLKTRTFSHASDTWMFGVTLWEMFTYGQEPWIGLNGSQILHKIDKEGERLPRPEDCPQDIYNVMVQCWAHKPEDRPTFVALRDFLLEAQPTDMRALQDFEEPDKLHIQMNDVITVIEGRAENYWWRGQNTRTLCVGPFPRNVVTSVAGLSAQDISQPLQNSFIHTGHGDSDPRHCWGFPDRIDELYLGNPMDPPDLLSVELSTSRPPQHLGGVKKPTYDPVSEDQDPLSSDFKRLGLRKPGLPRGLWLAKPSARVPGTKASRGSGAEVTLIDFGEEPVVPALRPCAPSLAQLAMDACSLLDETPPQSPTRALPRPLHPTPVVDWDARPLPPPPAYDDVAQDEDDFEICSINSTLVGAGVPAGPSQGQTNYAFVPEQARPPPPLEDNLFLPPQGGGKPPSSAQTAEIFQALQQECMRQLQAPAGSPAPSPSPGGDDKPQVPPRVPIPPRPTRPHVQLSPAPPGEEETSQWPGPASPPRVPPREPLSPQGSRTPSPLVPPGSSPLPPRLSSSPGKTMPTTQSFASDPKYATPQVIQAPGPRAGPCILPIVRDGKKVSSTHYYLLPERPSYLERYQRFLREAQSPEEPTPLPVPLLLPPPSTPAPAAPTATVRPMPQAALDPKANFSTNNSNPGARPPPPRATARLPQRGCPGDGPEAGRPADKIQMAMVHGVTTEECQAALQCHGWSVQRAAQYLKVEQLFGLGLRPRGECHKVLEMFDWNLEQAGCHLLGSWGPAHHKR
Chain of protein kinases (human kinome) (Homo sapiens, UniProt P53671) (P53671 whole entry): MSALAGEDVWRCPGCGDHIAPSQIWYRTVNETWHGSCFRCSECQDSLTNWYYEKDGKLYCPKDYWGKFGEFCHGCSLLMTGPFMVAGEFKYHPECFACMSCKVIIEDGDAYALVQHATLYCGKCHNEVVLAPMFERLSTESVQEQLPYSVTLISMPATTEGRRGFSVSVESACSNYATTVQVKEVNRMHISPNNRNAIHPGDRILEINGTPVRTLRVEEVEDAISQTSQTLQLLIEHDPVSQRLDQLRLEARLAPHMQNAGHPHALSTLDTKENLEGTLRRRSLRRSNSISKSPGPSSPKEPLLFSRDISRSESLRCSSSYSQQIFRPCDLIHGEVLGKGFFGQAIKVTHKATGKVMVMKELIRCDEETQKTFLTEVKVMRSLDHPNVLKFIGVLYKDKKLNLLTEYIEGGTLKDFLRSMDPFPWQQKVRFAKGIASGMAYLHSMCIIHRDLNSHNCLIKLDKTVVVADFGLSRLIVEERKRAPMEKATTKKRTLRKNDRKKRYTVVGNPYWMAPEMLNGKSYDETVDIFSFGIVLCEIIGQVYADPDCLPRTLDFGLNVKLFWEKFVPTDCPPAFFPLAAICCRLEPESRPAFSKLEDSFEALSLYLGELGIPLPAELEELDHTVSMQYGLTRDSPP

Consider `C[C@@H]1C[C@@H](O)c2ncnc(N3CCN(C(=O)[C@H](CNCCCCCCCCCCc4cccc5c4C(=O)N(C4CCC(=O)NC4=O)C5=O)c4ccc(Cl)cc4)CC3)c21` (some centres unmarked) [INY.03.041.01], for which the “logFC FASTKD2 (Q9NYY8)” value in assay [1] (Experiment wp118) is given as −0.4539. Also, in assay [2] (experiment wp118), the “logFC ALDH18A1” value is on record as −0.376.
In the case of `Cc1cnc(Nc2ccc(N3CCN(CCOCCOCCNC(=O)COc4cccc5c4C(=O)N(C4CCC(=O)NC4=O)C5=O)CC3)cc2)nc1Nc1cccc(S(=O)(=O)NC(C)(C)C)c1` (centres unmarked) [JWG.118], the “logFC FASTKD2 (Q9NYY8)” value in assay [1] (Experiment wp071) is on record as −0.4341. The “logFC ALDH18A1” value in assay [2] (experiment wp071) is −0.4227.
In the case of `CC(C)S(=O)(=O)c1ccccc1Nc1nc(Nc2ccc(N3CCN(CCOCCNC(=O)CNc4cccc5c4C(=O)N(C4CCC(=O)NC4=O)C5=O)CC3)cc2)ncc1Cl` (centres unmarked) [SK.3.91], the “logFC CDK12” value was −1.134 in assay [3] (Accession Q9NYV4-1, experiment wp016); −0.9325 in assay [3] (Accession Q9NYV4-1, experiment wp016, 1 uM); −1.234 in assay [3] (Accession Q9NYV4-1, experiment wp172); −1.134 in assay [3] (CDK12 (Q9NYV4-1), experiment wp016); −0.9325 in assay [3] (CDK12 (Q9NYV4-1), experiment wp016, 1 uM); −1.234 in assay [3] (CDK12 (Q9NYV4-1), experiment wp172). In addition, the “logFC FASTKD2 (Q9NYY8)” value in assay [1] (Experiment wp016, 1 uM) is −0.4507. Moreover, the “logFC LIMK2” value is −1.441 in assay [4] (experiment wp016, 1 uM); −1.061 in assay [4] (experiment wp016); −1.431 in assay [4] (experiment wp103); −1.878 in assay [4] (experiment wp107); −0.8414 in assay [4] (experiment wp114); −0.7575 in assay [4] (experiment wp133, 2 hr). In addition, the “logFC LIMK2” value in assay [4] (experiment wp133, 4 hr) is −1.342; in assay [4] (experiment wp172) it was −0.8984. The “logFC of LIMK2” value in assay [4] (experiment wp016) is −1.061; in assay [4] (experiment wp016, 1 uM) it was −1.441; in assay [4] (experiment wp103), −1.431; in assay [4] (experiment wp107), −1.878; in assay [4] (experiment wp114) it was −0.8414; in assay [4] (experiment wp133, 2 hr), −0.7575. The “logFC of LIMK2” value in assay [4] (experiment wp133, 4 hr) is given as −1.342; in assay [4] (experiment wp172), −0.8984. In addition, the “logFC TNK2 (Q07912-1)” value in assay [5] (Experiment wp133, 2 hr) is listed as −1.053; in assay [5] (Experiment wp133, 4 hr), −2.261. The “logFC TNK2” value in assay [5] (experiment wp133, 2 hr) is reported as −1.053; in assay [5] (experiment wp133, 4 hr), −2.261. In addition, the “logFC ALDH18A1” value in assay [2] (experiment wp160, 1 hr) was −0.9684.
Turning to `CNC(=O)c1ccccc1Nc1cc(Nc2ccc(N3CCN(CCOCCOCCNC(=O)CNc4cccc5c4C(=O)N(C4CCC(=O)NC4=O)C5=O)CC3)cc2OC)ncc1C(F)(F)F` (centres unmarked) [MFH.5.103.1], in assay [2] (experiment wp076), the “logFC ALDH18A1” value was −0.4191.
Consider `Cn1c(=O)c(-c2c(Cl)cccc2Cl)cc2cnc(Nc3ccc(OCCNC(=O)CCCCCCNC(=O)COc4cccc5c4C(=O)N(C4CCC(=O)NC4=O)C5=O)cc3)nc21` (centres unmarked) [SB1.G.192.1], for which the “logFC FASTKD2 (Q9NYY8)” value in assay [1] (Experiment wp081) was −0.3577. In addition, in assay [4] (experiment wp081), the “logFC LIMK2” value is −0.371 and the “logFC of LIMK2” value is recorded as −0.371. Also, in assay [4] (experiment wp131), the “logFC LIMK2” value is on record as −0.5544 and the “logFC of LIMK2” value was −0.5544. For the same compound, the “logFC TNK2 (Q07912-1)” value in assay [5] (Experiment wp131) was −1.488. For the same compound, the “logFC TNK2” value in assay [5] (experiment wp131) is listed as −1.488. Moreover, the “logFC ALDH18A1” value in assay [2] (experiment wp081) was −0.39.

The record behind these values is US20240269139A1, “COMPOUNDS FOR TARGETED PROTEIN DEGRADATION OF KINASES” (DANA-FARBER CANCER INSTITUTE, INC., priority 2020, published 2024).
